These are literature values, as cited in patent US20150313829A1, “TOPICAL FORMULATIONS FOR THE PREVENTION AND TREATMENT OF ALOPECIA AND INHIBITION OF HAIR GROWTH” (UNIVERSIDADE FEDERAL DE MINAS GERAIS -UFMG, priority 2012, published 2015).

The test system of the series is murine model of alopecia. To be noted: WO 01/98325.

Consider “Asp1-Arg2-VAL3-Tyr4-Ile5-His6-Pro7 [Ang-(1-7)]”, for which the hair growth entry was “induces hair growth” and the “number of mature follicles” value was “increased the number of mature follicles”.
